Test results: ChEMBL document CHEMBL1201862, “PubChem BioAssay data set” (2004)
Active and inactive are the calls of the source.

Assays:
[1] = target: Beta-galactosidase (Escherichia coli, UniProt Q8VNN2); assay: PubChem AID 485352; format: functional
[2] = target: T1, Lysosomal acid glucosylceramidase (Homo sapiens, UniProt P04062); assay: Dose response cell-based high throughput screening assay to identify enhancers of beta-glucosidase activity. [Related pubchem assays: 784 ]; format: functional
T1 sequence (P04062 whole entry): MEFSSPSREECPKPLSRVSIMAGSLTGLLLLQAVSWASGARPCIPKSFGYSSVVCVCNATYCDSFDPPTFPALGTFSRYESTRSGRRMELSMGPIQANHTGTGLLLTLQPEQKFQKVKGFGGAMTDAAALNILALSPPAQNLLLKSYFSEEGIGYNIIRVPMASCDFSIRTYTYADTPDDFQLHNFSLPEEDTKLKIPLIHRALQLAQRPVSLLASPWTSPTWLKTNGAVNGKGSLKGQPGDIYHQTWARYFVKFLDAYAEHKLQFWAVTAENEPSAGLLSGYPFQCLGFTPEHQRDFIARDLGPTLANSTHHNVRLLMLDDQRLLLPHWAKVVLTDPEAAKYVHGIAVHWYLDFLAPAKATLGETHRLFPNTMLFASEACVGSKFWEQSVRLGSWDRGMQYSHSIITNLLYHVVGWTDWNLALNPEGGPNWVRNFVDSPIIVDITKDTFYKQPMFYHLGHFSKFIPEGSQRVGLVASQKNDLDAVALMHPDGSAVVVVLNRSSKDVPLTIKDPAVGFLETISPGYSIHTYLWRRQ

[3] = target: T2, Type-1 angiotensin II receptor (Homo sapiens, UniProt P30556); assay: AT1 receptor antagonists, dose response, selectivity assay for APJ receptor antagonist project, cell-based, uHTS hits (AID 463214); format: functional;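 note: antagonist potency against angiotensin II stimulated AT1 response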
T2 sequence (P30556 whole entry): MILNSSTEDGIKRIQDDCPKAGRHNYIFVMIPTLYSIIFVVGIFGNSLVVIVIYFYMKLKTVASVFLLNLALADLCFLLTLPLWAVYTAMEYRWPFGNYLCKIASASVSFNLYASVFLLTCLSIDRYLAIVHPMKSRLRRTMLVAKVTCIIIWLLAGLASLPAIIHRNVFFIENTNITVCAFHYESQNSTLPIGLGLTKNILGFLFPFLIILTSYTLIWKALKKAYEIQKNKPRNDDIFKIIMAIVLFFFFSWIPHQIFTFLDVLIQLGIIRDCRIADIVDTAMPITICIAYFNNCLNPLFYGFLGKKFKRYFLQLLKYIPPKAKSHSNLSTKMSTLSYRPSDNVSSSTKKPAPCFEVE

[4] = target: T3, Heat shock factor protein 1 (Mus musculus, UniProt P38532); assay: HSF1 potentiators in luciferase reporter cells, confirmation, cell-based, NIH3T3, luminescence, dose retest (AID 435004); format: functional;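 note: stress induced by proteasome inhibitor MG132 added 30 min after compound; luciferase reporter driven by HSF1 response element in NIH3T3 cells; actives raise luminescence as potentiators of the MG132 stress response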
T3 sequence (P38532 whole entry): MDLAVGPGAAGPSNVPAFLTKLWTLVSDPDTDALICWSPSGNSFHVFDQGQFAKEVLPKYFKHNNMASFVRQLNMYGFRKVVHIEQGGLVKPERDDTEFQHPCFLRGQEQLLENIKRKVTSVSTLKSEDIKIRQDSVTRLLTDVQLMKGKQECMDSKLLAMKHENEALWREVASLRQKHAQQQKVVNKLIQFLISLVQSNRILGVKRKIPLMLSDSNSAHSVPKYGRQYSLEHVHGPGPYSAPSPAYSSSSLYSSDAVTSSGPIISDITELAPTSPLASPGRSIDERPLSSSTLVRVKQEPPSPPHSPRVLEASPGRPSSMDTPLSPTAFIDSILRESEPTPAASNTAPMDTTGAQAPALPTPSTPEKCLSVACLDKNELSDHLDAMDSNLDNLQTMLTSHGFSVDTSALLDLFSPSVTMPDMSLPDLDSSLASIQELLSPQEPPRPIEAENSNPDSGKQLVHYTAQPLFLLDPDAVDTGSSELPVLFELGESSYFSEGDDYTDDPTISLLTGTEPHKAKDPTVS

[5] = target: T4, E3 ubiquitin-protein ligase XIAP (Homo sapiens, UniProt P98170); assay: XIAP antagonists, biochemical, IAP family, fluorescence polarization (AID 1018); format: functional
[6] = target: T5, Corticotropin-releasing factor receptor 2/Corticotropin-releasing factor-binding protein (Homo sapiens, UniProt P24387+Q13324); assay: Dose Response confirmation of uHTS hits for small molecule antagonists of the CRF-binding protein and CRF-R2 receptor complex.; format: functional; settings: read-out: IC50_Mean
T5 sequence (Q13324 whole entry): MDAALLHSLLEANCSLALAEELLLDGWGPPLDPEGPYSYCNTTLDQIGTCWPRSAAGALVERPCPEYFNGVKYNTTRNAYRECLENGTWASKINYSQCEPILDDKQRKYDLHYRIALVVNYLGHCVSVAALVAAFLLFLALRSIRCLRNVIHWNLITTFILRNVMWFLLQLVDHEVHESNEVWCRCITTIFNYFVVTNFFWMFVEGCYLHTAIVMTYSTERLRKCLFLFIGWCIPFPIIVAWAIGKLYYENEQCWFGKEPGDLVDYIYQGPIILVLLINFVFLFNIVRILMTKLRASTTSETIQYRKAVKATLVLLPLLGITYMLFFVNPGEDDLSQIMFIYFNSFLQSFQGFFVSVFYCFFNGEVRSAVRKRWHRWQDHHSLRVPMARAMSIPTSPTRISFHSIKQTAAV
T5 sequence (P24387 whole entry): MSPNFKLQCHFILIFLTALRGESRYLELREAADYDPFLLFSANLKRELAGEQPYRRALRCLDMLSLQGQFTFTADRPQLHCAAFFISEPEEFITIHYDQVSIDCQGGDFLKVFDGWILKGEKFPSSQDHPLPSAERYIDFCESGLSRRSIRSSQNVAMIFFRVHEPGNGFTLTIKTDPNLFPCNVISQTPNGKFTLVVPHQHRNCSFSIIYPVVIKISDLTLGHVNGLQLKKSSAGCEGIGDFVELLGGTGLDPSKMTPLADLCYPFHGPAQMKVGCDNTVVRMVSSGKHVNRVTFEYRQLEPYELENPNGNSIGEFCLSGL

[7] = target: T6, Short transient receptor potential channel 4 (Mus musculus, UniProt Q9QUQ5); assay: mouse TRPC4 channel inhibitors, dose response, cell-based, HEK293 TRPC4/mu-opioid, Fluo-4 calcium (AID 434942); format: functional;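 note: potency of inhibitors blocking the TRPC4 calcium response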
T6 sequence (Q9QUQ5 whole entry): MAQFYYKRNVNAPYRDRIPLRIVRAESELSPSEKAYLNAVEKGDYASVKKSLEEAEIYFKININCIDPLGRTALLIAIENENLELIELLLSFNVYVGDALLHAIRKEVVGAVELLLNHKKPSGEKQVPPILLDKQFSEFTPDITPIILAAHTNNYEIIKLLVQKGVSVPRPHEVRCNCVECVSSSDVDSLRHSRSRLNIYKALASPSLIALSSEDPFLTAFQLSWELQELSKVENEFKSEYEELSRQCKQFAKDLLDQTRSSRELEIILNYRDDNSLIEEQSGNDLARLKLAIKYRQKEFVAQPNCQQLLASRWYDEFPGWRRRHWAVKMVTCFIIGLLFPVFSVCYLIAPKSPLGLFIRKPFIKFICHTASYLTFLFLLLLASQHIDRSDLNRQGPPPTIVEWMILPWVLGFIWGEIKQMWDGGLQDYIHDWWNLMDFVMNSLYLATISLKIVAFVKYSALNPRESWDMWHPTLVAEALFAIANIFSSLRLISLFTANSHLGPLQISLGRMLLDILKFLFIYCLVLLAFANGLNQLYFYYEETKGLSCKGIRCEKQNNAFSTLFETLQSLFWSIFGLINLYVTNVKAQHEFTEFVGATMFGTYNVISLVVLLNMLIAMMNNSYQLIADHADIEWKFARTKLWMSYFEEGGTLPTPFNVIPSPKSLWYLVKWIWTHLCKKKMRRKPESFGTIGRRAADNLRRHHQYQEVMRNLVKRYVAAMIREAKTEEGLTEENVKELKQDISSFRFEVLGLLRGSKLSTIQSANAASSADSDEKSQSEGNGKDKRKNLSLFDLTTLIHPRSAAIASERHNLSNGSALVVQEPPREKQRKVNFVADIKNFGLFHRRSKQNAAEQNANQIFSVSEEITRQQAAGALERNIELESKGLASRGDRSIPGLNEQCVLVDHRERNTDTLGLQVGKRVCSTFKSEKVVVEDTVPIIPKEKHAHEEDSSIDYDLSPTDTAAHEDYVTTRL

[8] = target: T5, Corticotropin-releasing factor receptor 2/Corticotropin-releasing factor-binding protein; assay: activators of CRF receptor 2 with binding protein – uHTS hits, confirmation (AID 602473); format: functional; settings: read-out: EC50_Mean
[9] = target: T4, E3 ubiquitin-protein ligase XIAP; assay: Counter Screen using XIAP-Bir3 for Chemical Antagonists of Bir1/2 domains of IAP-family anti-apoptotic proteins. [Related pubchem assays (depositor defined):AID1018, AID1449, AID1514, AID1638, AID1749, AID1750, AID488957, AID488963]
[10] = test system: Vero; assay: Vero cell cytotoxicity, cytotoxicity control for flavivirus capping enzyme inhibitors (AID 588742); format: functional; settings: Chlorocebus sabaeus
[11] = target: Genome polyprotein (dengue virus type 2, UniProt P29990); assay: Dengue-2 NS5 methyltransferase inhibitors, primary screen, biochemical, confirmation dose response (AID 588689); format: functional
[12] = target: Large T antigen (Simian virus 40, UniProt P03070); format: functional, Betapolyomavirus macacae;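 note: Confirmatory-stage PubChem screen for compounds that inhibit SV40 T antigen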
[13] = target: T7, SUMO-activating enzyme (Homo sapiens, UniProt Q9UBT2); assay: inhibitors of in vitro SUMOylation cascade, primary screen, biochemical, HTRF, uHTS (AID 2006); format: protein-complex assay
[14] = target: T7, SUMO-activating enzyme; assay: SUMOylation inhibitor hit validation, confirmation, SUMOylation inhibitor project, biochemical, AlphaScreen (AID 2018); format: functional
[15] = target: Glucose-6-phosphate 1-dehydrogenase (Homo sapiens, UniProt P11413); assay: human G6PD enzyme inhibitors, dose response, selectivity assay for P. falciparum G6PD inhibitor project, biochemical, fluorescence (AID 504792); format: functional
[16] = target: T8, Long-chain-fatty-acid--AMP ligase FadD28 (Mycobacterium tuberculosis, UniProt P9WQ59); assay: Fluorescence polarization aasay to screen for inhibitors that compete for the binding of FadD28 to a bisubstrate Measured in Biochemical System Using Plate Reader - 2147-01_Inhibitor_Dose_CherryPick_Activity.; format: functional, Mycobacterium tuberculosis H37Rv
T8 sequence (P9WQ59 whole entry): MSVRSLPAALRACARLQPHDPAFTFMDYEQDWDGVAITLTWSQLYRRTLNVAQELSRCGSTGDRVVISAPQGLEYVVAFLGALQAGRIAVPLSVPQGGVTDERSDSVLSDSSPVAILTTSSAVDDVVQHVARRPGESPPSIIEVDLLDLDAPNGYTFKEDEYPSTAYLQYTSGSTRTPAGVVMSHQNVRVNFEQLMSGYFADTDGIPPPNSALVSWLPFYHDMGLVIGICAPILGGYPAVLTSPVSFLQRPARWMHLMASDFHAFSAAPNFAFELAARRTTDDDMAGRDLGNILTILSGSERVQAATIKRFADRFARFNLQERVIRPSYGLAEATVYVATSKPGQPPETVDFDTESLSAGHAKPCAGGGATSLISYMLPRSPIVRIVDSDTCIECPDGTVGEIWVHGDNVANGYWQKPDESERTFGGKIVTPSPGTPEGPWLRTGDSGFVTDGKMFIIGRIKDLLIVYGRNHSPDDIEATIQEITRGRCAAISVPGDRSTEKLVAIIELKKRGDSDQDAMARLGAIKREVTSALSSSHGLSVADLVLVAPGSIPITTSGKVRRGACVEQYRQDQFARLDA

[17] = target: Beta-2 adrenergic receptor (Homo sapiens, UniProt P07550); assay: beta2AR agonists driving receptor internalization, dose response, cell-based, FAP fluorogen, flow cytometry, cherry pick 1 (AID 588763); format: functional
Sequence of Beta-2 adrenergic receptor (P07550 whole entry): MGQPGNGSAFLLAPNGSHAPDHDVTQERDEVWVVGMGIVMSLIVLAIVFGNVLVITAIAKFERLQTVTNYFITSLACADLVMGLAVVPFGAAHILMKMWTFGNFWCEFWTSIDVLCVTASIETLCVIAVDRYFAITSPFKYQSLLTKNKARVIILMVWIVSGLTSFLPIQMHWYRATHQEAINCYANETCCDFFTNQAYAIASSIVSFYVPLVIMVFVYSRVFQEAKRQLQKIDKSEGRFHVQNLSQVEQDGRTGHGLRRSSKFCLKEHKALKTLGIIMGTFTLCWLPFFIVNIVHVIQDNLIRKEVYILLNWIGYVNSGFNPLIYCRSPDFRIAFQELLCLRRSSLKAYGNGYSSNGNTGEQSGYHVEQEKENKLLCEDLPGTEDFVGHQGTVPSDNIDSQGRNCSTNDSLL

Sequence of Beta-galactosidase (Q8VNN2 whole entry): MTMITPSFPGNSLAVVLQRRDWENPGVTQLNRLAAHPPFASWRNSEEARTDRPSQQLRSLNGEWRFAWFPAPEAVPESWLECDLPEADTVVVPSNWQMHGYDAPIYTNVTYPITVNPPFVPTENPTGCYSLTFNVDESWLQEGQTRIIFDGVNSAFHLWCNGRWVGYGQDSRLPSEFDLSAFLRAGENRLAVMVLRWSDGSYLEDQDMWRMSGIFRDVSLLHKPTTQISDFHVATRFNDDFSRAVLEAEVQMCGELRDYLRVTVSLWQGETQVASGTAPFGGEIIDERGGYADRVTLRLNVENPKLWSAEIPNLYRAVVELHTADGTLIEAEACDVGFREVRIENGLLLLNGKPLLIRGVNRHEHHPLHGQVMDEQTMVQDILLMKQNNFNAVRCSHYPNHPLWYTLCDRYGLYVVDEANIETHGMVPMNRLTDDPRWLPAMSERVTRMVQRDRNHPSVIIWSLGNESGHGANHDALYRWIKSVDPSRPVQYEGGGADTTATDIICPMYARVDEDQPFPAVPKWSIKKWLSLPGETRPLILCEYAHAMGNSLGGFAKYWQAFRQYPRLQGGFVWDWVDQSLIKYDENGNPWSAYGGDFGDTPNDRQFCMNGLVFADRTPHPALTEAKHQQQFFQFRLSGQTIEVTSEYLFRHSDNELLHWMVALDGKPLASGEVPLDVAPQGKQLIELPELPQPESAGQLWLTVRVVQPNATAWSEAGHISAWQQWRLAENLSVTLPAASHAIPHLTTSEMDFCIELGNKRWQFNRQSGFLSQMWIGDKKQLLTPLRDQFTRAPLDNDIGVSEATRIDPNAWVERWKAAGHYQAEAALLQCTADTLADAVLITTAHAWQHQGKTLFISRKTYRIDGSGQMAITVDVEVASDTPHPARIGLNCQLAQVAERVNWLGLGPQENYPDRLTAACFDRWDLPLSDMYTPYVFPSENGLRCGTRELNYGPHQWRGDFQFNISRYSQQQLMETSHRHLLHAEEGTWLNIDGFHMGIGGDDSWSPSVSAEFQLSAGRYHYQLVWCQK
Sequence of Genome polyprotein (P29990 2492-3391 limits assumed): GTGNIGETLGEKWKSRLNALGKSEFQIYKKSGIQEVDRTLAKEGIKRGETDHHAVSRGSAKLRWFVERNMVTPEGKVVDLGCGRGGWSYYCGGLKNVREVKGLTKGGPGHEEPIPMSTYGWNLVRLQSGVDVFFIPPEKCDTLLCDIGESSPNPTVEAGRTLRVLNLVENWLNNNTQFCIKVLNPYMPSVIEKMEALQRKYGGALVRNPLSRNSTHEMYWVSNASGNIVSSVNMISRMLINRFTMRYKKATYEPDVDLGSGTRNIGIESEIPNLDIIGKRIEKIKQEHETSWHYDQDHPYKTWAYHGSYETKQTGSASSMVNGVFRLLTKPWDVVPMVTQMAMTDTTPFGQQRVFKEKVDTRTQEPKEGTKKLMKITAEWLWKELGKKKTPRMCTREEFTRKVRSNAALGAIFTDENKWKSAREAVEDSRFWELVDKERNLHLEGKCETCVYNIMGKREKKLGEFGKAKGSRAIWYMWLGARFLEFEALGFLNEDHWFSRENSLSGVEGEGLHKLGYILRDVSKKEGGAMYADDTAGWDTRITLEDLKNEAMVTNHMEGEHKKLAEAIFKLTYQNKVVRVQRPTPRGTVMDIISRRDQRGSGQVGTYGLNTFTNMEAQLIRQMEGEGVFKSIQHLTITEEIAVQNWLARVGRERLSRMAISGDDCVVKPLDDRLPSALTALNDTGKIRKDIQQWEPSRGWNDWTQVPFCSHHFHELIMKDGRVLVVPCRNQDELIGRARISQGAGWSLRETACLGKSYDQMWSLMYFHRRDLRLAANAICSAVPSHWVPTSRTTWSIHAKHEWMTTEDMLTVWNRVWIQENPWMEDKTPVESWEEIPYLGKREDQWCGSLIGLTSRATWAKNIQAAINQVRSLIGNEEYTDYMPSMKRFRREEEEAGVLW
T4 sequence (P98170 whole entry): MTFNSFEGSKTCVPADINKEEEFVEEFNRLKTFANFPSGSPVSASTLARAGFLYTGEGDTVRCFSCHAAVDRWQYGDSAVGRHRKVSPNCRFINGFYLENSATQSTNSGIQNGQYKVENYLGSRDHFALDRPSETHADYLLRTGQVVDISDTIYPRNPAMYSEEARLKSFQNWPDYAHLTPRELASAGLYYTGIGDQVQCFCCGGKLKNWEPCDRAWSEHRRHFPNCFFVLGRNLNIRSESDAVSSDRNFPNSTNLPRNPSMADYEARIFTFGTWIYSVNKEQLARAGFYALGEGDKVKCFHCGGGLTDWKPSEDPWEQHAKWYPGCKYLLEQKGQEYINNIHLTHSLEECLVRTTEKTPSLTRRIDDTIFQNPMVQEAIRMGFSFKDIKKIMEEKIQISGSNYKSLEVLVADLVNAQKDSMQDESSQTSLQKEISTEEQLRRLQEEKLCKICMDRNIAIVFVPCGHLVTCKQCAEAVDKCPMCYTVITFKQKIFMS
T7 sequence (Q9UBE0 whole entry): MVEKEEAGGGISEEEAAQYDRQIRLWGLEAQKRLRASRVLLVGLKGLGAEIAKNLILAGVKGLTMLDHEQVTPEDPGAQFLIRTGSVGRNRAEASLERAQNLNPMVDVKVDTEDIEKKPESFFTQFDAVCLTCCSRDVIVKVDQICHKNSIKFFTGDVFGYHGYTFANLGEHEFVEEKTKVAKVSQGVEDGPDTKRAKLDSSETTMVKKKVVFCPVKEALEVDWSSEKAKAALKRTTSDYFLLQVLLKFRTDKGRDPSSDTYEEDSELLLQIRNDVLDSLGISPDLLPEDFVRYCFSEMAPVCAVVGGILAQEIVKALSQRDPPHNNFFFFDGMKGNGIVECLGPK
T7 sequence (Q9UBT2 whole entry): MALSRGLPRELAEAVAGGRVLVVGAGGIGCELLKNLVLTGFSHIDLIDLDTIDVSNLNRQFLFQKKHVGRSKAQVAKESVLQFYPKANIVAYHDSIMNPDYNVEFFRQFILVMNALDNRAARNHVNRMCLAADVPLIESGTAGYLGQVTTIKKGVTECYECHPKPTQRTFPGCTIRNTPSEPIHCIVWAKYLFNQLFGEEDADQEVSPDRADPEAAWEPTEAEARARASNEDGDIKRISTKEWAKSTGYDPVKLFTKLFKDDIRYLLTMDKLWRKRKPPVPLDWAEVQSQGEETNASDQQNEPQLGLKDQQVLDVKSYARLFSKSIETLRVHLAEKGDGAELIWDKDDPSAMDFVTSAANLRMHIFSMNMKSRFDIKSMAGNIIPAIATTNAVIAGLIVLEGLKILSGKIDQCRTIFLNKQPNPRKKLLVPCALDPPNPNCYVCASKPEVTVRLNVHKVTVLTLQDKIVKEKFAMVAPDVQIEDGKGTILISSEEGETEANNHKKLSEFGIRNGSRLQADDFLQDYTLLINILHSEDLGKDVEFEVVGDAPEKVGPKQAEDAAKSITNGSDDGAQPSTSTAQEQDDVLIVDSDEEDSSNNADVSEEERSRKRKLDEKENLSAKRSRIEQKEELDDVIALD
Sequence of Glucose-6-phosphate 1-dehydrogenase (P11413 whole entry): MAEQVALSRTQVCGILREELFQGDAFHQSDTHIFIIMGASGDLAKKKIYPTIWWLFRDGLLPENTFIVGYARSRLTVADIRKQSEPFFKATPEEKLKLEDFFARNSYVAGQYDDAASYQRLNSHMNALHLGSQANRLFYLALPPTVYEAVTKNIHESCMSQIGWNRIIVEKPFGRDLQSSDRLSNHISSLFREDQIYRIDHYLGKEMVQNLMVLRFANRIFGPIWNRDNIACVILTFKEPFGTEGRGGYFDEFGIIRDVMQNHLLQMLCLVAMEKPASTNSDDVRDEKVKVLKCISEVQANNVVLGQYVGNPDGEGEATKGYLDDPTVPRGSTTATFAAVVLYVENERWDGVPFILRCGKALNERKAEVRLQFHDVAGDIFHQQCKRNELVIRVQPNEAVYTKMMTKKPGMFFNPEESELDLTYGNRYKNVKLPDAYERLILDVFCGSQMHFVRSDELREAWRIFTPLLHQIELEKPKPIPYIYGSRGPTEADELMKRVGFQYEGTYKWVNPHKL
Sequence of Large T antigen (P03070 whole entry): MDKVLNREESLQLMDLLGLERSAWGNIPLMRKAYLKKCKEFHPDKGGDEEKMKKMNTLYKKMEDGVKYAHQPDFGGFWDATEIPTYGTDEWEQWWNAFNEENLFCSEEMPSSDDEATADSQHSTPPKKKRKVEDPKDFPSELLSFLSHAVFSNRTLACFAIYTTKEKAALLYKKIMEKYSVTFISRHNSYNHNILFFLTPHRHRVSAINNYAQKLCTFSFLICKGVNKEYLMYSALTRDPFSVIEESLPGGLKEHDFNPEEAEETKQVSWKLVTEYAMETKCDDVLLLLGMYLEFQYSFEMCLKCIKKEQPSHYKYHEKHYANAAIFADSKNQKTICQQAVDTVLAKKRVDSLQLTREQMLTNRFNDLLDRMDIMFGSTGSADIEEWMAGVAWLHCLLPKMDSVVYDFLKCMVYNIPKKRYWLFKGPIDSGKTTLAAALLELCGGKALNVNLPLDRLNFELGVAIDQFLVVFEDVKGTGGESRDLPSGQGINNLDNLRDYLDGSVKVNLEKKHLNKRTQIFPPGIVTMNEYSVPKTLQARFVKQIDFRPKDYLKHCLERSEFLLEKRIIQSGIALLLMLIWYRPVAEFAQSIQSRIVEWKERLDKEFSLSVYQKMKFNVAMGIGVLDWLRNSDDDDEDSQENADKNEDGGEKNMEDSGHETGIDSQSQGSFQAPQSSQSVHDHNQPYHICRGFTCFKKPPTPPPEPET

SMILES: CC1CCCCN1C(=O)CSc1nc2cc3c(cc2c(=O)n1Cc1ccc2c(c1)OCO2)OCO3 (centres undefined)
- EC50 [1]: > 40 µM (inactive)
- EC50 [2]: > 50 µM (not active)
- IC50 [3]: > 40 µM (not active)

SMILES: CC(=O)c1ccc(NC2=c3ccccc3=NC2=O)cc1
- EC50 [4]: > 260 µM (inactive)
- EC50 [1]: > 40 µM (inactive)
- IC50 [3]: 3.1 µM (active)

SMILES: O=C(O)CN1C(c2ccccc2O)Nc2ccc(Br)cc2C1c1ccccc1 (centres undefined)
- IC50 [5]: > 100 µM (not active)
- IC50 [6]: 28.6 µM (active)
- EC50 [7]: 5.31 µM (active)
- EC50 [8]: > 53 µM (inactive)
- IC50 [9]: > 100 µM (inactive)

SMILES: O=S(=O)(Nc1nc2ccccc2nc1NCc1ccco1)c1ccc(Cl)cc1
- CC50 [10]: > 40 µM (active)
- IC50 [11]: 91.9 µM (active)

SMILES: O=C(O)CN1C(=O)/C(=C\C(Br)=C\c2ccccc2)SC1=S
- IC50 [12]: 53.4 µM (active)
- CC50 [10]: > 40 µM (active)

SMILES: CCc1ccc(NC(=O)NNC(=O)c2cc3ccccc3cc2O)cc1
- IC50 [13]: 11.6 µM (active)
- IC50 [14]: 37.2 µM (active)

SMILES: CCc1ccc(C(=O)NNc2ccc(Cl)cc2)cc1
- EC50 [1]: > 40 µM (inactive)
- IC50 [3]: 6.08 µM (active)

SMILES: CCCCCCCCSC1=CC(=O)C(OC)=C(OC)C1=O
- IC50 [15]: 48.1 µM (inactive)
- AC50 [16]: 30.9 µM (active)
- CC50 [10]: > 40 µM (active)
- IC50 [11]: 12.5 µM (active)

SMILES: NC(=O)CC(NC(=O)Cc1cccc2ccccc12)c1ccc(NCCCN2CCCC2=O)c([N+](=O)[O-])c1 (centres undefined)
- EC50 [17]: 0.801 µM (active)
